Values after ≈ are worked out from the molar mass of the structure shown.
How the values were obtained:
[1] = tested on: A. fumigatus Tsukuba strain; assay: Anti-Aspergillus activity (MIC measurement); assay type: cell-based; details: minimum inhibitory concentration (MIC) by visual inspection, RPMI 1640, 42 to 48 hours at 35° C.
Description: (§1) 1. Anti-Candida Activity and Anti-Aspergillus Activity
(§2) (1) Preparation of Fungal Sample
(§3) For the C. albicans CAF2-1 strain, a fungal suspension from a standing culture for 48 hours at 30° C. in a Sabouraud dextrose liquid culture medium (SDB) was diluted with RPMI 1640 medium to adjust a fungal suspension of 1.2×10^3 cells/mL. For the A. fumigatus Tsukuba strain, −80° C. stored strain was diluted with RPMI 1640 medium to adjust to a fungal suspension of 4.5×10^3 cells/mL.
(§4) (2) Preparation of an Agent Dilution Plate
(§5) Using a U-bottomed 96-well plate, 8 samples/plate (A to H) of sample dilution solutions were prepared. On the 2nd to 12th rows were dispensed 10 μL of dimethyl sulfoxide solution. Weighed sample was dissolved in dimethyl sulfoxide to prepare a 2.5 mg/mL solution, 20 μL of this solution was added to the first row of the prepared plate, and 12 steps of two-fold step dilutions (10 μL of solution+10 μL of dimethyl sulfoxide solution) were performed on the plate. This sample dilution solution was dispensed in an amount of 1 μL into a flat-bottomed 96-well plate for MIC measurement to prepare a sample dilution plate.
(§6) (3) Inoculation of Fungal Suspension and Culture
(§7) The fungal suspension prepared in (1) was used in an amount of 99 μL/well to inoculate the flat-bottomed 96-well plate containing 1 μL/well of the test compound dilution prepared in (2), and standing culture was performed aerobically for 42 to 48 hours at 35° C.
(§8) The following representative compounds prepared in the examples were measured for anti-Candida activity and anti-Aspergillus activity by measurement method in (1).

[2] = tested on: C. albicans CAF2-1 strain; assay: Anti-Candida activity (MIC measurement); assay type: cell-based; details: CAF21STRAIN, minimum inhibitory concentration (MIC) by visual inspection, RPMI 1640, 42 to 48 hours at 35° C.
Description: as §1, §2, §3, §4, §5, §6, §7, §8

Structure (SMILES) | MIC [1] [µg/mL] | MIC [2] [µg/mL]
CCCCOc1ccc(Cc2nnc(-c3cccnc3N)o2)cc1 [Example 45, 3-(5-(4-Butoxy-benzyl)-[1,3,4]oxadiazol-2-yl)-pyridin-2-ylamine] | 12.5 (≈ 38.5 µM) | 6.25 (≈ 19.3 µM)
Cc1ccc(-c2cn(Cc3ccc(OCc4ccccc4)cc3)nn2)cn1 [Example 2, 5-(1-(4-Benzyloxy-benzyl)-1H-[1,2,3]triazol-4-yl)-2-methyl-pyridine] | 1.56 (≈ 4.38 µM) | 3.13 (≈ 8.78 µM)
Nc1ccc(-c2nnc(Cc3ccc(OCc4ccccc4)cc3)s2)c(N)n1 [Example 10] | 25 (≈ 64.2 µM) | 3.13 (≈ 8.04 µM)
Nc1ccc(-c2cn(Cc3ccc(OCc4ccccc4)cc3)nn2)c(N)n1 [Example 4, 3-(1-(4-Benzyloxy-benzyl)-1H-[1,2,3]triazol-4-yl)-pyridin-2,6-diamine] | 0.78 (≈ 2.09 µM) | 0.39 (≈ 1.05 µM)
Nc1ncccc1-c1nnn(Cc2ccc(OCc3ccccc3)s2)n1 [Example 48, 3-(2-(5-Benzyloxy-thiophen-2-ylmethyl)-2H-tetrazol-5-yl)-pyridin-2-ylamine] | 1.56 (≈ 4.28 µM) | 0.39 (≈ 1.07 µM)
Nc1ncccc1-c1cn(Cc2ccc(OCc3ccccc3)cc2)nn1 [Example 1, 3-(1-(4-Benzyloxy-benzyl)-1H-[1,2,3]triazol-4-yl)-pyridin-2-ylamine] | 0.2 (≈ 0.56 µM) | 0.05 (≈ 0.14 µM)
Nc1ncccc1-c1nnn(Cc2ccccc2)n1 [Example 49, 3-(2-Benzyl-2H-tetrazol-5-yl)-pyridin-2-ylamine] | 12.5 (≈ 49.5 µM) | 1.56 (≈ 6.18 µM)
Nc1ncccc1-c1noc(Cc2ccc(OCc3ccccn3)cc2)n1 [Example 23] | 6.25 (≈ 17.4 µM) | 1.56 (≈ 4.34 µM)
COCc1ccc(-c2nnc(Cc3ccc(OCc4ccccc4)cc3)o2)c(N)n1 [Example 11] | 3.13 (≈ 7.78 µM) | 6.25 (≈ 15.5 µM)
Nc1ncccc1-c1nnc(Cc2ccc(OCc3ccccc3)cc2)s1 [Example 8] | 1.56 (≈ 4.17 µM) | 0.78 (≈ 2.08 µM)
Nc1ncccc1-c1cn(Cc2ccc(Oc3ccccc3)cc2)nn1 [Example 32, 3-(1-(4-Phenoxy-benzyl)-1H-[1,2,3]triazol-4-yl)-pyridin-2-ylamine] | 0.39 (≈ 1.14 µM) | 0.1 (≈ 0.291 µM)
Nc1ncccc1-c1cn(Cc2ccc(COc3ccccn3)cc2)nn1 [Example 26, 3-(1-(4-(Pyridin-2-yloxymethyl)-benzyl)-1H-[1,2,3]triazol-4-yl)-pyridin-2-ylamine] | 0.39 (≈ 1.09 µM) | 0.05 (≈ 0.14 µM)
COCc1ccc(-c2nnn(Cc3ccc(OCc4ccccc4)cc3)n2)c(N)n1 [Example 6, 3-(2-(4-Benzyloxy-benzyl)-2H-tetrazol-5-yl)-6-methoxymethyl-pyridin-2-ylamine] | 1.56 (≈ 3.88 µM) | 1.56 (≈ 3.88 µM)
Nc1ncccc1-c1nnc(Cc2ccc(OCc3ccccn3)cc2)o1 [Example 24] | 6.25 (≈ 17.4 µM) | 1.56 (≈ 4.34 µM)
Nc1ncccc1-c1nnn(Cc2cccc(Oc3ccccc3)c2)n1 [Example 31, 3-(2-(3-Phenoxy-benzyl)-2H-tetrazol-5-yl)-pyridin-2-ylamine] | 0.78 (≈ 2.26 µM) | 0.39 (≈ 1.13 µM)
Nc1ncccc1-c1ncn(Cc2ccc(OCc3ccccc3)cc2)n1 [Example 14, 3-(1-(4-Benzyloxy-benzyl)-1H-[1,2,4]triazol-3-yl)-pyridin-2-ylamine] | > 25 | 6.25 (≈ 17.5 µM)
Nc1ncccc1-n1cc(Cc2ccc(OCc3ccccc3)cc2)nn1 [Example 12, 3-(4-(4-Benzyloxy-benzyl)-[1,2,3]triazol-1-yl)-pyridin-2-ylamine] | 0.2 (≈ 0.56 µM) | 0.2 (≈ 0.56 µM)

Structure (SMILES) | MIC [1] [µg/mL] | MIC [2] [µg/mL]
Nc1ncccc1-c1nnn(Cc2ccc(Oc3ccccc3)s2)n1 [Example 46, 3-(2-(5-Phenoxy-thiophen-2-ylmethyl)-2H-tetrazol-5-yl)-pyridin-2-ylamine] | 1.56 (≈ 4.45 µM) | 0.39 (≈ 1.11 µM)
Nc1ccc(-c2nnn(Cc3ccc(OCc4ccccc4)cc3)n2)c(N)n1 [Example 7, 3-(2-(4-Benzyloxy-benzyl)-2H-tetrazol-5-yl)-pyridin-2,6-diamine] | 1.56 (≈ 4.18 µM) | 0.39 (≈ 1.04 µM)
Nc1ccc(-c2cn(Cc3cccc(Oc4ccccc4)c3)nn2)cn1 [Example 29, 5-(1-(3-Phenoxy-benzyl)-1H-[1,2,3]triazol-4-yl)-pyridin-2-ylamine] | 1.56 (≈ 4.54 µM) | 0.39 (≈ 1.14 µM)
Nc1ncccc1-c1nnc(Cc2ccc(OCc3ccccc3)cc2)[nH]1 [Example 15, 3-(5-(4-Benzyloxy-benzyl)-4H-[1,2,4]triazol-3-yl)-pyridin-2-ylamine] | 3.13 (≈ 8.76 µM) | 6.25 (≈ 17.5 µM)
Nc1ncccc1-c1nnn(Cc2ccc(Oc3ccc(F)cc3)o2)n1 [Example 51, 3-(2-(5-(4-Fluoro-phenoxy)-furan-2-ylmethyl)-2H-tetrazol-5-yl)-pyridin-2-ylamine] | 3.13 (≈ 8.88 µM) | 6.25 (≈ 17.7 µM)
Nc1ncccc1-c1nnn(Cc2ccc(Cc3ccc(Cl)o3)cc2)n1 [Example 21, 3-(2-(4-(5-Chloro-furan-2-ylmethyl)-benzyl)-2H-tetrazol-5-yl)-pyridin-2-ylamine] | 0.39 (≈ 1.06 µM) | 0.39 (≈ 1.06 µM)
Nc1ncccc1-c1cn(Cc2cccc(Oc3ccccc3)c2)nn1 [Example 28, 3-(1-(3-Phenoxy-benzyl)-1H-[1,2,3]triazol-4-yl)-pyridin-2-ylamine] | 1.56 (≈ 4.54 µM) | 0.1 (≈ 0.291 µM)
Nc1ncccc1-c1nnn(Cc2ccc(Oc3ccccc3)cc2)n1 [Example 35, 3-(2-(4-Phenoxy-benzyl)-2H-tetrazol-5-yl)-pyridin-2-ylamine] | 0.78 (≈ 2.26 µM) | 1.56 (≈ 4.53 µM)
Cc1ccc(Cc2cccc(Cn3nnc(-c4cccnc4N)n3)c2)s1 [Example 52, 3-(2-(3-(5-Methyl-thiophen-2-ylmethyl)-benzyl)-2H-tetrazol-5-yl)-pyridin-2-ylamine] | 3.13 (≈ 8.64 µM) | 1.56 (≈ 4.3 µM)
Nc1ncccc1-c1noc(Cc2ccc(OCc3ccccc3)cc2)n1 [Example 13, 3-(5-(4-Benzyloxy-benzyl)-[1,2,4]-oxadiazol-3-yl)-pyridin-2-ylamine] | 1.56 (≈ 4.35 µM) | 1.56 (≈ 4.35 µM)
Nc1ncccc1-c1cn(Cc2ccc(COc3ccccc3)cn2)nn1 [Example 37, 3-(1-(5-Phenoxymethyl-pyridin-2-ylmethyl)-1H-[1,2,3]triazol-4-yl)-pyridin-2-ylamine] | 1.56 (≈ 4.35 µM) | 0.2 (≈ 0.558 µM)
COCc1ccc(-c2cn(Cc3ccc(Cc4ccc(Cl)o4)cc3)nn2)c(N)n1 [Example 19, 3-(1-(4-(5-Chloro-furan-2-ylmethyl)-benzyl)-1H-[1,2,3]triazol-4-yl)-6-methoxymethyl-pyridin-2-ylamine] | 3.13 (≈ 7.64 µM) | 0.39 (≈ 0.952 µM)
Nc1ccc(-c2nnn(Cc3ccc(Cc4ccc(Cl)o4)cc3)n2)c(N)n1 [Example 22, 3-(2-(4-(5-Chloro-furan-2-ylmethyl)-benzyl)-2H-tetrazol-5-yl)-pyridin-2,6-diamine] | 1.56 (≈ 4.09 µM) | 0.39 (≈ 1.02 µM)
Cc1ccc(-c2cn(Cc3ccc(Cc4ccc(Cl)o4)cc3)nn2)cn1 [Example 17, 5-(1-(4-(5-Chloro-furan-2-ylmethyl)-benzyl)-1H-[1,2,3]triazol-4-yl)-2-methyl-pyridine] | 0.78 (≈ 2.14 µM) | 3.13 (≈ 8.58 µM)
Nc1ncccc1-c1nnn(Cc2ccn(Cc3ccccc3)c2)n1 [Example 55, 3-(2-(1-Benzyl-1H-pyrrol-3-ylmethyl)-2H-tetrazol-5-yl)-pyridin-2-ylamine] | 0.78 (≈ 2.35 µM) | 0.1 (≈ 0.302 µM)
Nc1ccc(-c2cn(Cc3ccc(OCc4ccccc4)cc3)nn2)cn1 [Example 3, 5-(1-(4-Benzyloxy-benzyl)-1H-[1,2,3]triazol-4-yl)-pyridin-2-ylamine] | 0.78 (≈ 2.18 µM) | 1.56 (≈ 4.36 µM)

— patent publication US8183264B2, “Pyridine derivative substituted by heteroaryl ring, and antifungal agent comprising the same” (Eisai R&D Managment Co., Ltd., priority 2006, dated 2012)
